{"source": "patent US12285357B2", "about": "“Intraocular drug delivery systems and methods of use” (SpyGlass Pharma, Inc., priority 2022, dated 2025)", "key": {"[1]": {"experiment": "daily release or elution of Bimatoprost in vitro versus time (FIG. 8)", "type": "physicochemical", "settings": "four-hundred-day study", "description": "FIG. 8 is an exemplary graph of daily release or elution of a pharmaceutical or therapeutic agent in vitro versus time. […] The target release rate in this study on rabbits was 0.050 to 0.100 micrograms per day."}, "[2]": {"experiment": "Bimatoprost sampled in the aqueous humor of dogs over time (FIG. 9)", "type": "in vivo", "description": "FIG. 9 is an exemplary graph of a therapeutic agent delivered to the aqueous humor of an eye of canines versus time.\nIn this example, there was a low dose group of dogs (Grp 1), a mid-dose group of dogs (Grp 2), a high dose group of dogs (Grp 3), and a placebo group of dogs (Grp 4)."}}}
{"compound": "CCNC(=O)CCC/C=C\\C[C@@H]1[C@@H](/C=C/[C@@H](O)CCc2ccccc2)[C@H](O)C[C@@H]1O", "note": "[Bimatoprost]", "values": [{"measurement": "release rate order over time", "setting": "[1]", "result": "essentially a zero-order and/or a steady state elution rate"}, {"measurement": "level of Bimatoprost in the aqueous humor, elution order", "setting": "[2]; low dose (Grp 1), mid-dose (Grp 2), high dose (Grp 3), study period about one hundred thirteen days", "result": "zero-order elution rate"}, {"measurement": "mean measurements of Bimatoprost in the aqueous humor versus dose", "setting": "[2]; low, mid and high dose groups, sampled in ng/mL", "result": "increased with the higher doses"}]}
